Reference: the supplement of paper PMC10307832

Key:
Experiment in all cases: relative viability (nuclei count vs DMSO), 5 days (fraction); higher = more cells survive
[1] = compound: O=C(O)c1ccc2c(c1)nc(Nc1cccc(Cl)c1)c1ccncc12 [Silmitasertib] + O=C(CCCCCCC(=O)Nc1ccccc1)NO [Vorinostat] (partner 1 µM)
Procedure, shortened: (§1)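 After 5 days of treatment, lung cancer cells in 1536-well plates were fixed and stained in a single step (final 0.05% Triton X-100, 1% formaldehyde, 1 ug/ml Hoechst) and their nuclei counted on 4× images. Treatment had been applied by pin tool the day after seeding as one drug alone or as a fixed anchor-drug dose with five library-drug doses (not always all listed) in √10 steps. Relative viability is the nuclei count of treated wells divided by that of vehicle wells, and values are medians of duplicate plates.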

[2] = compound: O=C(O)c1ccc2c(c1)nc(Nc1cccc(Cl)c1)c1ccncc12 [Silmitasertib] + N=C(N)NC(=N)NCCc1ccccc1 [Phenformin] (partner 250 µM)
Procedure, shortened: as §1

[3] = compound: O=C(O)c1ccc2c(c1)nc(Nc1cccc(Cl)c1)c1ccncc12 [Silmitasertib] + CS(=O)(=O)N1CCN(Cc2cc3nc(-c4cccc5[nH]ncc45)nc(N4CCOCC4)c3s2)CC1 [Pictilisib] (partner 1 µM)
Procedure, shortened: as §1

[4] = compound: O=C(O)c1ccc2c(c1)nc(Nc1cccc(Cl)c1)c1ccncc12 [Silmitasertib] + Cc1nc(NC(=O)N2CCC[C@H]2C(N)=O)sc1-c1ccnc(C(C)(C)C(F)(F)F)c1 [Alpelisib] (partner 2 µM)
Procedure, shortened: as §1

[5] = compound: O=C(O)c1ccc2c(c1)nc(Nc1cccc(Cl)c1)c1ccncc12 [Silmitasertib] + Cc1cc(Nc2cc(N3CCN(C)CC3)nc(Sc3ccc(NC(=O)C4CC4)cc3)n2)n[nH]1 [Tozasertib] (partner 0.1 µM)
Procedure, shortened: as §1

Row | Cell Line | relative viability ([1]; first compound 0.04 µM) | relative viability ([1]; first compound 1.265 µM) | relative viability ([1]; first compound 4 µM) | relative viability ([2]; first compound 0.04 µM) | relative viability ([2]; first compound 1.265 µM) | relative viability ([2]; first compound 4 µM) | relative viability ([3]; first compound 0.04 µM) | relative viability ([3]; first compound 1.265 µM) | relative viability ([3]; first compound 4 µM) | relative viability ([4]; first compound 0.04 µM) | relative viability ([4]; first compound 1.265 µM) | relative viability ([4]; first compound 4 µM) | relative viability ([5]; first compound 0.04 µM) | relative viability ([5]; first compound 1.265 µM) | relative viability ([5]; first compound 4 µM) | relative viability ([3]; first compound 0.4 µM) | relative viability ([4]; first compound 0.4 µM) | relative viability ([1]; first compound 0.4 µM) | relative viability ([2]; first compound 0.4 µM) | relative viability ([5]; first compound 0.4 µM)
1 | HCC-827 | 0.861 | 0.241 | 0.555 | 0.436 | 0.413 | 0.376 | 1.04 | 0.751 | 0.788 | 1.03 | 1.07 | 1.03 | 0.454 | 0.398 | 0.471 | – | – | – | – | –
2 | HOP-62 | 0.779 | 0.584 | 0.388 | 0.624 | 0.662 | 0.608 | 0.809 | 0.654 | 0.279 | 1.03 | 0.867 | 0.678 | 0.4 | 0.341 | 0.296 | – | – | – | – | –
3 | IA-LM | 1.05 | 1.21 | 0.538 | – | – | – | 0.346 | 0.233 | 0.149 | 0.717 | 0.942 | 0.84 | – | – | – | 0.267 | 0.901 | – | – | –
4 | LC-2-ad | 0.712 | 0.753 | 0.3 | 0.645 | 0.488 | 0.314 | 0.448 | 0.525 | 0.332 | 0.78 | 0.783 | 0.827 | 0.537 | 0.388 | 0.374 | 0.443 | 0.87 | 0.573 | 0.59 | 0.411
5 | LCLC-97TM1 | 0.605 | 0.654 | 0.119 | 0.477 | 0.328 | 0.295 | 0.19 | 0.15 | 0.112 | 0.216 | 0.165 | 0.14 | 0.247 | 0.168 | 0.162 | – | – | – | – | –
6 | LCLC-103H | 0.823 | 0.774 | 0.428 | 0.314 | 0.32 | 0.23 | 0.578 | 0.565 | 0.446 | 0.995 | 0.971 | 0.939 | 0.522 | 0.356 | 0.289 | 0.702 | 1.01 | 0.693 | 0.307 | 0.341
7 | LK-2 | 0.296 | 0.404 | 0.18 | 0.485 | 0.415 | 0.271 | 0.618 | 0.514 | 0.499 | 1.28 | 0.914 | 0.943 | 0.165 | 0.169 | 0.19 | 0.52 | 0.921 | – | – | –
8 | LOU-NH91 | 1.06 | 0.784 | 0.514 | 0.812 | 0.584 | 0.423 | 0.574 | 0.464 | 0.388 | 0.8 | 0.612 | 0.593 | 0.689 | 0.441 | 0.484 | 0.507 | 0.614 | 0.874 | 0.617 | 0.539
9 | LU99A | 0.519 | 0.482 | 0.374 | 0.883 | 0.848 | 0.518 | 0.325 | 0.297 | 0.291 | 0.502 | 0.399 | 0.471 | 0.316 | 0.263 | 0.256 | 0.331 | 0.521 | 0.546 | 0.883 | 0.29
10 | LXF-289 | 0.751 | 0.747 | 0.862 | 0.53 | 0.58 | 0.382 | 0.808 | 0.772 | 0.79 | 1.06 | 1.09 | 1.07 | 0.212 | 0.186 | 0.182 | – | – | – | – | –
11 | NCI-H23 | 0.6 | 0.545 | 0.165 | 0.639 | 0.675 | 0.403 | 0.54 | 0.38 | 0.26 | 0.762 | 0.67 | 0.547 | 0.427 | 0.223 | 0.188 | – | – | 0.281 | – | –
12 | NCI-H322M | 0.994 | 0.968 | 0.653 | 0.783 | 0.603 | 0.384 | 0.503 | 0.381 | 0.365 | 0.763 | 0.559 | 0.465 | 0.51 | 0.377 | 0.342 | 0.503 | 0.71 | 0.936 | 0.761 | 0.505
13 | NCI-H358 | 0.774 | 0.677 | 0.692 | 0.371 | 0.325 | 0.225 | 0.375 | 0.322 | 0.288 | 0.916 | 0.65 | 0.48 | 0.121 | 0.115 | 0.083 | 0.324 | 0.786 | 0.652 | 0.272 | 0.0941
14 | NCI-H441 | 0.935 | 0.822 | 0.843 | 0.692 | 0.739 | 0.335 | 0.469 | 0.285 | 0.315 | 0.746 | 0.634 | 0.41 | 0.61 | 0.512 | 0.472 | – | – | – | – | –
15 | NCI-H1563 | – | – | – | 0.711 | 0.655 | 0.627 | 0.62 | 0.68 | 0.578 | 0.922 | 0.923 | 0.92 | – | – | – | 0.679 | 0.734 | – | 0.714 | –
16 | NCI-H1650 | 0.577 | 0.421 | 0.288 | 0.49 | 0.283 | 0.151 | 0.781 | 0.348 | 0.211 | – | – | – | 0.466 | 0.272 | 0.235 | 0.459 | – | 0.386 | 0.412 | 0.517
17 | NCI-H1703 | – | – | – | – | – | – | 0.25 | 0.228 | 0.252 | 0.334 | 0.392 | 0.452 | – | – | – | 0.291 | 0.312 | – | – | –
18 | NCI-H1792 | – | – | – | 0.29 | 0.327 | 0.103 | 0.28 | 0.283 | 0.286 | 0.671 | 0.683 | 0.727 | – | – | – | 0.294 | 0.595 | – | 0.24 | –
19 | NCI-H2342 | 0.782 | 0.746 | 0.727 | 0.614 | 0.465 | 0.493 | – | – | – | – | – | – | 0.479 | 0.374 | 0.445 | – | – | – | 0.713 | 0.479
20 | SW 900 | 0.585 | 0.446 | 0.172 | 0.817 | 0.452 | 0.24 | – | – | – | – | – | – | 0.649 | 0.38 | 0.349 | – | – | 0.403 | 0.34 | 0.413
